The text below walks through data of the supplement of paper PMC11208160.
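Also: IS621 recombinase and bridge RNA in Escherichia coli cells.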

A short description of this data set: recombinant barcode read abundance after kanamycin selection (control-corrected) (log10(CPM+1)); higher = more efficient recombination; sequences stand for … in AGTGCAGAGAAAATCGGCCAGTTTTCTCTGCCTGCAGTCCGCATGCCGT…AGATTTATGCAGCGGACTGCCTTTCTCCCAAAGTGATAAACCGGACAGTATCATGGACCGGTTTTCCCGGTAATCCGTATTTGCAAGGTTGGTTTCACT; site = the 11-nt target. The method, boiled down: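 Recombination efficiency was calculated from barcode counts at recombinant junctions, normalized to counts per million, averaged and corrected by the control. Each value is given as log10(CPM+1). The constructs were Gibson-cloned oligos (promoter, target, barcode, J23119-driven first 104 bridge RNA bases) in a vector with the remaining 73 bp and a T7-inducible recombinase, co-electroporated into E. coli with a donor plasmid and plated in duplicate on chloramphenicol/ampicillin LB agar (control) or chloramphenicol/ampicillin/kanamycin with 0.1 mM IPTG.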
For “CTGACTTCTTGGGTTCTAACCTGTTGCCT (site CAGACTTCTAG)”, the “recombinant barcode read abundance (log10)” value stood at 0.0484. In the case of “CTGACTTCTTGGGTTCTAACCTGTTGCCT (site CCGACTTCTAG)” it was 0.0377. In the case of “CTGACTTCTTGGGTTCTAACCTGTTGCCT (site CGGACTTCTAG)”, the “recombinant barcode read abundance (log10)” value came to 0.079. Consider “CTGACTTCTTGGGTTCTAACCTGTTGCCT (site CTGACTTCTAG)”, for which the “recombinant barcode read abundance (log10)” value came out at 0.121. On to “CTGAGTACTTGGGTTCTAACCTGTTGCCT (site ATCAGTACTAG)”, for which the “recombinant barcode read abundance (log10)” value worked out at 0.0653. Turning to “CTGAGTACTTGGGTTCTAACCTGTTGCCT (site CTGAGTACTAG)”, the “recombinant barcode read abundance (log10)” value was 1.08. On to “CTGAGTCCTTGGGTTCTAACCTGTTGCCA (site CTGAGTCCTTG)”, for which the “recombinant barcode read abundance (log10)” value was 0.424. The same measure for “CTGAGTCCTTGGGTTCTAACCTGTTGCCA (site CTGAGTTCTTG)”: 0.402. In the case of “CTGATCCCTTGGGTTCTAACCTGTTGCCT (site CAGATCCCTAG)” it was 0.629; in that of “CTGATCCCTTGGGTTCTAACCTGTTGCCT (site CCGATCCCTAG)”, 0.182; in that of “CTGATCCCTTGGGTTCTAACCTGTTGCCT (site CGGATCCCTAG)”, 0.255. For the sequence “CTGATCCCTTGGGTTCTAACCTGTTGCCT (site CTGATCCCTAG)”, the “recombinant barcode read abundance (log10)” value was determined as 1.22. Take “CTGATGACTTGGGTTCTAACCTGTTGCCT (site CTGATAACTAG)”: the “recombinant barcode read abundance (log10)” value was found to be 0.177. Take “CTGATGACTTGGGTTCTAACCTGTTGCCT (site CTGATCACTAG)”: the “recombinant barcode read abundance (log10)” value came out at 0.247.

With “CTGATGACTTGGGTTCTAACCTGTTGCCT (site CTGATGACTAG)”, the “recombinant barcode read abundance (log10)” value was 0.999. In the case of “CTGATGACTTGGGTTCTAACCTGTTGCCT (site CTGATTACTAG)”, the “recombinant barcode read abundance (log10)” value is 0.0174.

For “CTGATGTCTTGGGTTCTAACCTGTTGCCA (site CTGATGTCTTG)”, the “recombinant barcode read abundance (log10)” value is 0.456. In the case of “CTGATGTCTTGGGTTCTAACCTGTTGCCA (site CTGCTGTCTTG)” it was 0.126. The same measure for “CTGATGTCTTGGGTTCTAACCTGTTGCCA (site CTGGTGTCTTG)”: 0.388. In the case of “CTGATGTCTTGGGTTCTAACCTGTTGCCA (site CTGTTGTCTTG)” it was 0.136; in that of “CTGCACCCTTGGGTTCTAACCTGTTGCTA (site CTGCACCCTTA)”, 1.61; in that of “CTGCACCCTTGGGTTCTAACCTGTTGCTA (site GGCGGAGCTCG)”, 0.378. For the sequence “CTGCACTCTTGGGTTCTAACCTGTTGCCA (site CTGCACTCTTG)”, the “recombinant barcode read abundance (log10)” value is 0.842. In the case of “CTGCACTCTTGGGTTCTAACCTGTTGCCA (site CTGTACTCTAG)” it was 0.28; in that of “CTGCAGACTTGGGTTCTAACCTGTTGCCG (site CTCCAGACTCT)”, 0.37.

On to “CTGCAGACTTGGGTTCTAACCTGTTGCCG (site CTGCAGACTCG)”, for which the “recombinant barcode read abundance (log10)” value turned out to be 0.41. The same measure for “CTGCAGTCTTGGGTTCTAACCTGTTGCCA (site CTGCAGTCTTG)”: 0.18; for “CTGCAGTCTTGGGTTCTAACCTGTTGCCA (site TGCATAGCTCT)”: 0.126; for “CTGCTCCCTTGGGTTCTAACCTGTTGCGG (site CTGATCCCTCC)”: 0.124. The same measure for “CTGCTCCCTTGGGTTCTAACCTGTTGCGG (site CTGCTCCCTCC)”: 0.36. Turning to “CTGCTCCCTTGGGTTCTAACCTGTTGCGG (site CTGGTCCCTCC)”, the “recombinant barcode read abundance (log10)” value was 0.306. Consider “CTGCTCCCTTGGGTTCTAACCTGTTGCGG (site CTGTTCCCTCC)”, for which the “recombinant barcode read abundance (log10)” value was determined as 0.0581. The same measure for “CTGGAGACTTGGGTTCTAACCTGTTGCTT (site AGAACTCCTTC)”: 0.0253; for “CTGGAGACTTGGGTTCTAACCTGTTGCTT (site CTGGAGACTAA)”: 1.93; for “CTGGCCACTTGGGTTCTAACCTGTTGCCT (site CAGGCCACTAG)”: 0.115. In the case of “CTGGCCACTTGGGTTCTAACCTGTTGCCT (site CCGGCCACTAG)” it was 0.0832.

For the sequence “CTGGCCACTTGGGTTCTAACCTGTTGCCT (site CGGGCCACTAG)”, the “recombinant barcode read abundance (log10)” value was 0.0825. In the case of “CTGGCCACTTGGGTTCTAACCTGTTGCCT (site CTGGCCACTAG)” it was 0.766; in that of “CTGGCGTCTTGGGTTCTAACCTGTTGCCT (site CTGGAGTCTAG)”, 0.263. As for “CTGGCGTCTTGGGTTCTAACCTGTTGCCT (site CTGGCGTCTAG)”, the “recombinant barcode read abundance (log10)” value worked out at 1.1.

Consider “CTGGCGTCTTGGGTTCTAACCTGTTGCCT (site CTGGGGTCTAG)”, for which the “recombinant barcode read abundance (log10)” value worked out at 0.0321. In the case of “CTGGCGTCTTGGGTTCTAACCTGTTGCCT (site CTGGTGTCTAG)” it was 0.0782; in that of “CTGGGAACTTGGGTTCTAACCTGTTGCAG (site CTCGGAACTAT)”, 0.149. Consider “CTGGGAACTTGGGTTCTAACCTGTTGCAG (site CTGGGAACTCT)”, for which the “recombinant barcode read abundance (log10)” value was determined as 0.836. In the case of “CTGGGGTCTTGGGTTCTAACCTGTTGCCT (site CTGGAGTCTAG)” it was 0.858; in that of “CTGGGGTCTTGGGTTCTAACCTGTTGCCT (site CTGGCGTCTAG)”, 0.36; in that of “CTGGGGTCTTGGGTTCTAACCTGTTGCCT (site CTGGGGTCTAG)”, 2.45. In the case of “CTGGGGTCTTGGGTTCTAACCTGTTGCCT (site CTGGTGTCTAG)” it was 0.173. On to “CTGGTGTCTTGGGTTCTAACCTGTTGCCA (site CTGATGTCTTG)”, for which the “recombinant barcode read abundance (log10)” value is 0.0384. In the case of “CTGGTGTCTTGGGTTCTAACCTGTTGCCA (site CTGCTGTCTTG)” it was 0.0405; in that of “CTGGTGTCTTGGGTTCTAACCTGTTGCCA (site CTGGTGTCTTG)”, 1.12; in that of “CTGGTGTCTTGGGTTCTAACCTGTTGCCA (site CTGTTGTCTTG)”, 0.434. In the case of “CTGTACTCTTGGGTTCTAACCTGTTGCCT (site CTGCACTCTTG)” it was 0.126; in that of “CTGTACTCTTGGGTTCTAACCTGTTGCCT (site CTGTACTCTAG)”, 1.3; in that of “CTGTGAGCTTGGGTTCTAACCTGTTGCAG (site AACAATACTAG)”, 0.107. In the case of “CTGTGAGCTTGGGTTCTAACCTGTTGCAG (site CTGTGAGCTCT)” it was 1.47; in that of “CTGTGCACTTGGGTTCTAACCTGTTGCCG (site ATGTGCACTCT)”, 0.053; in that of “CTGTGCACTTGGGTTCTAACCTGTTGCCG (site CTGTGCACTCG)”, 0.197. Consider “CTGTGTCCTTGGGTTCTAACCTGTTGCGG (site CTGTGTCCTCC)”, for which the “recombinant barcode read abundance (log10)” value stood at 1.84. In the case of “CTGTGTCCTTGGGTTCTAACCTGTTGCGG (site TCAGCCTCTAG)” it was 0.214; in that of “CTTAACACTTGGGTTCTAACCTGTTGCCG (site CTTAACACTCG)”, 0.683. The same measure for “CTTAACACTTGGGTTCTAACCTGTTGCCG (site TCATGACCTAT)”: 0.0383. Consider “CTTACGACTTGGGTTCTAACCTGTTGCCT (site CTTACGACTAG)”, for which the “recombinant barcode read abundance (log10)” value worked out at 0.695.

In the case of “CTTACGACTTGGGTTCTAACCTGTTGCCT (site GTTACAACTAG)”, the “recombinant barcode read abundance (log10)” value was determined as 0.355. “CTTACTACTTGGGTTCTAACCTGTTGCCA (site CTTACTACTTG)”: the “recombinant barcode read abundance (log10)” value was determined as 0.0598. As to “CTTACTACTTGGGTTCTAACCTGTTGCCA (site TCCGGCGCTCC)”, the “recombinant barcode read abundance (log10)” value amounted to 0.0182. For “CTTACTGCTTGGGTTCTAACCTGTTGCCT (site CTTACAGCTAG)”, the “recombinant barcode read abundance (log10)” value came out at 0.775. With “CTTACTGCTTGGGTTCTAACCTGTTGCCT (site CTTACCGCTAG)”, the “recombinant barcode read abundance (log10)” value is 0.291. For the sequence “CTTACTGCTTGGGTTCTAACCTGTTGCCT (site CTTACGGCTAG)”, the “recombinant barcode read abundance (log10)” value amounted to 0.295. In the case of “CTTACTGCTTGGGTTCTAACCTGTTGCCT (site CTTACTGCTAG)” it was 0.183. The same measure for “CTTAGGGCTTGGGTTCTAACCTGTTGCCT (site CTTAGGGCTAG)”: 0.419; for “CTTAGGGCTTGGGTTCTAACCTGTTGCCT (site CTTTGTGCTAG)”: 0.012; for “CTTAGGGCTTGGGTTCTAACCTGTTGCGG (site CTAAGGGCTCC)”: 2.14. As for “CTTAGGGCTTGGGTTCTAACCTGTTGCGG (site CTTAGGGCTCC)”, the “recombinant barcode read abundance (log10)” value is 3.02. Consider “CTTCAAGCTTGGGTTCTAACCTGTTGCCT (site CTACAAGCTAG)”, for which the “recombinant barcode read abundance (log10)” value amounted to 1.17.

Regarding “CTTCAAGCTTGGGTTCTAACCTGTTGCCT (site CTCCAAGCTAG)”, the “recombinant barcode read abundance (log10)” value worked out at 0.257. Turning to “CTTCAAGCTTGGGTTCTAACCTGTTGCCT (site CTGCAAGCTAG)”, the “recombinant barcode read abundance (log10)” value was 0.197.
